Tested on: Mpl-expressing Ba/F3 cell line (human mpl gene)
Assay: Measurement of thrombopoietin (TPO) activity: viable cell count of Mpl-expressing Ba/F3 cell line (Cell Count Reagent SF, absorbance 450 nm)
Type: cell-based
Details: for Concentration: concentration corresponding to the maximum TPO activity value; for TPO activity: maximum TPO activity value, ODt/ODs×100 relative to maximum reaction of human TPO, Mpl-expressing Ba/F3 cells cultured at 37° C. for one day, at the concentration given
Description: The TPO activities of the compounds of the invention obtained in the aforementioned examples were measured by the procedure described below, for evaluation of their thrombopoietic effects.
Establishment of Mpl-expressing Ba/F3 Cell Line
The human mpl gene was cloned from cDNAs of the human erythroleukemia cell line HEL by PCR, and was incorporated into pCOS1 to construct an expression vector. The expression vector was transfected into Ba/F3 cells by electroporation method, and an Mpl-expressing Ba/F3 clone was established.
Measurement of Thrombopoietin (TPO) Activity
The cytokine-eliminated Mpl-expressing Ba/F3 line was plated in a 96-well plate at 25,000 cells/well. DMSO solutions containing the compounds obtained in each of the examples were then prepared to different specified concentration ranges, and each solution was added to the Mpl-expressing Ba/F3 cell line (final DMSO concentration: ≦0.1%), and the cell were cultured at 37° C. for one day. Human TPO (by R&D Systems or Genzyme) was used as a positive control.
Each of the cultured Mpl-expressing Ba/F3 cell lines was subjected to absorbance measurement at a wavelength of 450 nm (reference wavelength: 620 nm), corresponding to the viable cell count, using Cell Count Reagent SF (by Nacalai Tesque Inc.). The TPO activity of each compound for the Mpl-expressing Ba/F3 cell line was determined based on the following formula. TPO activity (%)=ODt/ODs×100
ODs: Absorbance at maximum reaction of human TPO (wavelength: 450-620 nm).
ODt: Absorbance of test solution (wavelength: 450-620 nm).
Tables 1 and 2 show the maximum TPO activity values and the corresponding concentrations of each compound, as obtained by the test described above.

| Structure (SMILES) | Concentration | TPO activity |
| --- | --- | --- |
| NCCCC[C@@H](NC(=O)Cc1ccc(O)c(O)c1)C(=O)Nc1ccc(C(c2ccc(NC(=O)[C@@H](CCCCN)NC(=O)Cc3ccc(O)c(O)c3)cc2)c2ccc(NC(=O)[C@@H](CCCCN)NC(=O)Cc3ccc(O)c(O)c3)cc2)cc1.O=C(O)C(F)(F)F [Example 188, tris[4-[N-α-[2-(3,4-dihydroxyphenyl)acetyl]-D-lysyl]aminophenyl]methane trifluoroacetate] | 100 µM | 10.1% |
| Cl.NCCCC[C@H](NC(=O)Cc1c[nH]c2ccccc12)C(=O)Nc1ccc(C(c2ccc(NC(=O)[C@H](CCCCN)NC(=O)Cc3c[nH]c4ccccc34)cc2)c2ccc(NC(=O)[C@H](CCCCN)NC(=O)Cc3c[nH]c4ccccc34)cc2)cc1 [Example 1, tris[4-[N-α-[2-(1H-indol-3-yl)acetyl]-L-lysyl]aminophenyl]methane hydrochloride] | 25 µM | 37.6% |
| Cl.NCCCC[C@@H](NC(=O)c1cc2cc(O)ccc2[nH]1)C(=O)Nc1ccc(C(c2ccc(NC(=O)[C@@H](CCCCN)NC(=O)c3cc4cc(O)ccc4[nH]3)cc2)c2ccc(NC(=O)[C@@H](CCCCN)NC(=O)c3cc4cc(O)ccc4[nH]3)cc2)cc1 [Example 151, tris[4-[N-α-(5-hydroxy-1H-indol-2-yl)carbonyl-D-lysyl]aminophenyl]methane hydrochloride] | 50 µM | 90.8% |
| Cc1[nH]c2ccccc2c1CC(=O)N[C@@H](CCCCN)C(=O)Nc1ccc(C(c2ccc(NC(=O)[C@H](CCCCN)NC(=O)Cc3c(C)[nH]c4ccccc34)cc2)c2ccc(NC(=O)[C@H](CCCCN)NC(=O)Cc3c(C)[nH]c4ccccc34)cc2)cc1.Cl [Example 7, tris[4-[N-α-[2-(2-methyl-1H-indol-3-yl)acetyl]-L-lysyl]aminophenyl]methane hydrochloride] | 21 µM | 24.7% |
| COc1ccc2[nH]c(C)c(CC(=O)N[C@@H](CCN)C(=O)Nc3ccc(C(c4ccc(NC(=O)[C@H](CCN)NC(=O)Cc5c(C)[nH]c6ccc(OC)cc56)cc4)c4ccc(NC(=O)[C@H](CCN)NC(=O)Cc5c(C)[nH]c6ccc(OC)cc56)cc4)cc3)c2c1.O=C(O)C(F)(F)F [Example 133, tris[4-[β-aminomethyl-N-[2-(5-methoxy-2-methyl-1H-indol-3-yl)acetyl]-L-alanyl]aminophenyl]methane trifluoroacetate] | 50 µM | 89.6% |
| Cl.NCCCC[C@@H](NC(=O)c1cnccn1)C(=O)Nc1ccc(C(c2ccc(NC(=O)[C@@H](CCCCN)NC(=O)c3cnccn3)cc2)c2ccc(NC(=O)[C@@H](CCCCN)NC(=O)c3cnccn3)cc2)cc1 [Example 157, tris[4-[N-α-(pyrazin-2-yl)carbonyl-D-lysyl]aminophenyl]methane hydrochloride] | 50 µM | 36.1% |
| Cc1[nH]c2ccccc2c1CC(=O)N[C@H](CCCNC(=N)N)C(=O)Nc1ccc(C(c2ccc(NC(=O)[C@@H](CCCNC(=N)N)NC(=O)Cc3c(C)[nH]c4ccccc34)cc2)c2ccc(NC(=O)[C@@H](CCCNC(=N)N)NC(=O)Cc3c(C)[nH]c4ccccc34)cc2)cc1.Cl (stereo partly drawn) [Example 39, tris[4-[N-α-[2-(2-methyl-1H-indol-3-yl)acetyl]-D-arginyl]aminophenyl]methane hydrochloride] | 12.5 µM | 80.4% |
| Cl.NCCCC[C@@H](NC(=O)Cc1cccs1)C(=O)Nc1ccc(C(c2ccc(NC(=O)[C@@H](CCCCN)NC(=O)Cc3cccs3)cc2)c2ccc(NC(=O)[C@@H](CCCCN)NC(=O)Cc3cccs3)cc2)cc1 [Example 164, tris[4-[N-α-[2-(thiophen-2-yl)acetyl]-D-lysyl]aminophenyl]methane hydrochloride] | 25 µM | 24.9% |
| CCc1[nH]c2ccccc2c1CC(=O)N[C@H](CCCCN)C(=O)Nc1ccc(C(c2ccc(NC(=O)[C@@H](CCCCN)NC(=O)Cc3c(CC)[nH]c4ccccc34)cc2)c2ccc(NC(=O)[C@@H](CCCCN)NC(=O)Cc3c(CC)[nH]c4ccccc34)cc2)cc1.Cl [Example 148, tris[4-[N-α-[2-(2-ethyl-1H-indol-3-yl)acetyl]-D-lysyl]aminophenyl]methane hydrochloride] | 25 µM | 73.6% |
| Cl.NCCCC[C@@H](NC(=O)[C@H](N)Cc1ccc(O)cc1)C(=O)Nc1ccc(C(c2ccc(NC(=O)[C@@H](CCCCN)NC(=O)[C@H](N)Cc3ccc(O)cc3)cc2)c2ccc(NC(=O)[C@@H](CCCCN)NC(=O)[C@H](N)Cc3ccc(O)cc3)cc2)cc1 [Example 160, tris[4-[N-α-(D-tyrosyl)-D-lysyl]aminophenyl]methane hydrochloride] | 100 µM | 22.5% |
| Cc1[nH]c2ccccc2c1CC(=O)N[C@@H](CCCCN(C)C)C(=O)Nc1ccc(C(c2ccc(NC(=O)[C@H](CCCCN(C)C)NC(=O)Cc3c(C)[nH]c4ccccc34)cc2)c2ccc(NC(=O)[C@H](CCCCN(C)C)NC(=O)Cc3c(C)[nH]c4ccccc34)cc2)cc1 [Example 30, tris[4-[N-α-[2-(2-methyl-1H-indol-3-yl)acetyl]-N-ε-dimethyl-L-lysyl]aminophenyl]methane] | 25 µM | 108% |
| NCCCC[C@H](NC(=O)Cc1ccccc1)C(=O)Nc1ccc(C(c2ccc(NC(=O)[C@H](CCCCN)NC(=O)Cc3ccccc3)cc2)c2ccc(NC(=O)[C@H](CCCCN)NC(=O)Cc3ccccc3)cc2)cc1.O=C(O)C(F)(F)F [Example 199, tris[4-[N-α-(2-phenylacetyl)-L-lysyl]aminophenyl]methane trifluoroacetate] | 12.5 µM | 47.0% |
| NCCC[C@H](NC(=O)Cc1c[nH]c2ccccc12)C(=O)Nc1ccc(C(c2ccc(NC(=O)[C@H](CCCN)NC(=O)Cc3c[nH]c4ccccc34)cc2)c2ccc(NC(=O)[C@H](CCCN)NC(=O)Cc3c[nH]c4ccccc34)cc2)cc1.O=C(O)C(F)(F)F [Example 134, tris[4-[N-α-[2-(1H-indol-3-yl)acetyl]-L-ornithyl]aminophenyl]methane trifluoroacetate] | 50 µM | 67.2% |
| COc1ccc2[nH]c(C)c(CC(=O)N[C@@H](CCCCN(C)C)C(=O)Nc3ccc(C(c4ccc(NC(=O)[C@H](CCCCN(C)C)NC(=O)Cc5c(C)[nH]c6ccc(OC)cc56)cc4)c4ccc(NC(=O)[C@H](CCCCN(C)C)NC(=O)Cc5c(C)[nH]c6ccc(OC)cc56)cc4)cc3)c2c1 [Example 31] | 25 µM | 96.4% |
| Cl.NCCCC[C@@H](NC(=O)Cc1ccccn1)C(=O)Nc1ccc(C(c2ccc(NC(=O)[C@@H](CCCCN)NC(=O)Cc3ccccn3)cc2)c2ccc(NC(=O)[C@@H](CCCCN)NC(=O)Cc3ccccn3)cc2)cc1 [Example 172, tris[4-[N-α-[2-(pyridin-2-yl)acetyl]-D-lysyl]aminophenyl]methane hydrochloride] | 100 µM | 24.4% |
| NCCCC[C@H](NC(=O)c1cccc2cc(O)ccc12)C(=O)Nc1ccc(C(c2ccc(NC(=O)[C@H](CCCCN)NC(=O)c3cccc4cc(O)ccc34)cc2)c2ccc(NC(=O)[C@H](CCCCN)NC(=O)c3cccc4cc(O)ccc34)cc2)cc1.O=C(O)C(F)(F)F [Example 200, tris[4-[N-α-(6-hydroxynaphthalen-1-yl)carbonyl-L-lysyl]aminophenyl]methane trifluoroacetate] | 25 µM | 144% |
| COc1ccc2[nH]c(C)c(CC(=O)N[C@@H](CCCCN)C(=O)Nc3ccc(C(c4ccc(NC(=O)[C@H](CCCCN)NC(=O)Cc5c(C)[nH]c6ccc(OC)cc56)cc4)c4ccc(NC(=O)[C@H](CCCCN)NC(=O)Cc5c(C)[nH]c6ccc(OC)cc56)cc4)cc3)c2c1.Cl [Example 6, tris[4-[N-α-[2-(5-methoxy-2-methyl-1H-indol-3-yl)acetyl]-L-lysyl]aminophenyl]methane hydrochloride] | 25 µM | 17.4% |
| Cl.NCCCC[C@@H](NC(=O)c1cccc2[nH]ccc12)C(=O)Nc1ccc(C(c2ccc(NC(=O)[C@@H](CCCCN)NC(=O)c3cccc4[nH]ccc34)cc2)c2ccc(NC(=O)[C@@H](CCCCN)NC(=O)c3cccc4[nH]ccc34)cc2)cc1 [Example 152, tris[4-[N-α-(1H-indol-4-yl)carbonyl-D-lysyl]aminophenyl]methane hydrochloride] | 25 µM | 62.0% |
| Cl.NCCCC[C@H](NC(=O)c1cccnc1)C(=O)Nc1ccc(C(c2ccc(NC(=O)[C@H](CCCCN)NC(=O)c3cccnc3)cc2)c2ccc(NC(=O)[C@H](CCCCN)NC(=O)c3cccnc3)cc2)cc1 [Example 17, tris[4-[N-α-(3-pyridylcarbonyl)-L-lysyl]aminophenyl]methane hydrochloride] | 50 µM | 16.5% |
| Cl.NCCCC[C@@H](NC(=O)Cc1ccncc1)C(=O)Nc1ccc(C(c2ccc(NC(=O)[C@@H](CCCCN)NC(=O)Cc3ccncc3)cc2)c2ccc(NC(=O)[C@@H](CCCCN)NC(=O)Cc3ccncc3)cc2)cc1 [Example 173, tris[4-[N-α-[2-(pyridin-4-yl)acetyl]-D-lysyl]aminophenyl]methane hydrochloride] | 100 µM | 35.4% |
